Results taken from patent US7273847B2, “Peptides with antioxidant and antimicrobial properties” (priority 2000, dated 2007).

Tests used:
[1] = system: LDL; assay: TBARS assay of copper-induced oxidation of LDL; type: biochemical, human; conditions: for TBARS LDL Malondialdehyde: mean ± S.E.M., n=3
Experimental: Substrates for lipid oxidation included mixtures of natural and synthetic glycerophospholipids that are found in pulmonary surfactant and human LDL. The surfactant lipid mix, composed of egg phosphatidylcholine, dipalmitoylphosphatidylcholine, cholesterol and 1-oleoyl-2-linoleoyl-sn-glycero-3-phosphocholine (1:1:0.15:0.15, w/w, respectively) (Avanti Polar Lipids) in chloroform, was dried to a film under nitrogen. Following hydration in PBS or 0.15 M NaCl for 30 min, multilamellar vesicles were generated by vigorous vortexing for 5 minutes. LDL were isolated from the plasma of normal blood donors by density gradient ultracentrifugation (density=1.019-1.063 g/ml) as previously described in Qin et al., Am. J. Physiol. 274(5 Pt 2): H1836-1840 (1998), and stored in saline-EDTA. Just prior to use, EDTA was removed by dialysis against PBS, and the concentration of LDL was determined by Lowry assay (in milligrams of LDL-associated protein).
Stock solutions of 10 mM CuSO4 were freshly prepared daily. Reaction mixtures containing 1 mg/mi surfactant lipids or 150 μg/ml LDL were incubated with 10 μM CuSO4 for 24 hours or 4 hours, respectively, in the presence of putative oxidation inhibitors or controls at 37° C. in a shaking water bath in accordance with the method of Gelvan et al., Biochim. Biophys. Acta 1035(3):353-360 (1990). Control reactions which included LDL only, 10 μM CuSO4 or protein controls of bovine serum albumin (BSA), rat IgG, recombinant MBP, rat serum and human complement C1q were performed concurrently with experimental samples. Thiobarbituric acid-reactive substances (TBARS) were measured using a method adapted from Gelvan et al., Biochim. Biophys. Acta 1035(3):353-360 (1990). Samples and 0-10 μM […] standards were developed by addition of a solution composed of 0.375% thiobarbituric acid, 15% trichloroacetic acid, and 0.25N HCl at a volume ratio of 1:2, sample: developer. Following incubation at 95° C. for 30 minutes and centrifugation at 14,000 rpm for 15 minutes, an aliquot was read at 540 nm in a spectrophotometer. For continuous assessment of lipid oxidation, the accumulation of conjugated dienes during LDL oxidation was monitored spectrophotometrically in accordance with the method of Esterbauer et al., Free Rad. Med. Biol. 13, 341-390 (1992). Mixtures of 150 μg/ml LDL, 10 μM copper, and various amounts of surfactant proteins or control proteins were placed in quartz cuvettes and allowed to oxidize at room temperature over 335 minutes. Conjugated diene formation was assessed by measuring absorbance at 234 nm in a spectrophotometer.
The data are set forth graphically in FIG. 3. Various concentrations of recombinant wild type SP-A (circle), mutant SP-A containing a deletion of the collagen-like domain (square) and mutant SP-A containing only the neck and C-lectin domain (CLD) (triangle) were incubated with LDL in the presence of 10 μM Cu^2+, and lipid peroxidation was quantified by TBARS assay. Data are means, n=3-4.

[2] = system: surfactant lipids; assay: TBARS assay of copper-induced oxidation of surfactant lipids; type: biochemical
[3] = system: E. coli K12; assay: Radial diffusion growth inhibition in agar; type: cell-based; conditions: for Inhibition of E. coli growth in presence of anti-mouse SP-A / anti-mouse SP-D antibodies / Inhibition of E. coli growth in presence of excess LPS vesicles: radial diffusion; for Inhibition of E. coli growth in presence of excess LPS vesicles: for SP-A>SP-D
Experimental: (§1) A radial diffusion method was therefore used to examine the effect of the collectins and their individual structural domains on the growth of E. coli that were immobilized in agar (FIGS. 8,9). Wells were bored into plates containing agar impregnated with 2×10^6 E. coli/ml or GBS. Proteins to be tested were introduced into the wells and the plates were incubated overnight at 37° C.

[4] = system: GBS; assay: Radial diffusion growth inhibition in agar; type: cell-based; conditions: 0.5 and 5.0 μg added
Experimental: as §1

[5] = system: surfactant lipids; conditions: comparison value; read-out: I.C.50 of antioxidant serum lipoprotein; cited from earlier work
[6] = system: LDL; assay: Western (immunoblot) analysis of protein carbonyl derivatives formed during copper mediated LDL oxidation; type: biochemical, human; conditions: SP-A 10 μg/ml, SP-D 1 μg/ml; alkylated SP-A 50 μg/ml, alkylated SP-D 10 μg/ml
Experimental: Proteins were analyzed for carbonyl modification of amino acid side groups that occur during lipid oxidation, as described in Levine et al., Methods Enzymol. 186, 464-478 (1990). Briefly, proteins that were included in reactions mixtures with LDL and 10 μM copper were derivatized to 2,4-dinitrophenylhydrazones (DNP-hydrazones) by reaction with 2,4-dinitrophenylhydrazine (DNPH), size fractionated by 8-16% SDS-PAGE under reducing conditions and electrophorectically transferred to nitrocellulose membranes (Oxyblot, Intergen). The membrane was sequentially incubated with a rabbit anti-DNP IgG and a horseradish peroxidase-conjugated goat anti-rabbit IgG. Blots were developed by HRP-dependent oxidation of a chemiluminescent substrate, and visualized using autoradiography.
To determine if the surfactant proteins act as sinks for reactive lipid intermediates, covalent modification of SP-A and SP-D during LDL oxidation was assessed using a western analysis technique that detects carbonyl adducts (Levine et al., Methods Enzymol. 186: 464-78 (1990)). As depicted by FIG. 4, oxidative modification of proteins that occurred during copper induced LDL oxidation were determined by Western analysis using an antibody to DNP-derivatized carbonyl moieties. Reaction mixtures contained LDL only, LDL+Cu^2+, LDL+Cu^2++albumin+10 μg/ml SP-A, LDL+Cu^2++albumin+1 μg/ml SP-D, LDL+Cu^2++albumin, LDL+Cu^2++albumin+50 μg/ml iodoacetamide treated SP-A, LDL+Cu^2++albumin+10 μg/ml iodoacetamide treated SP-D, 50 μg/ml albumin+50 μg/ml iodoacetamide treated SP-A, albumin+10 μg/ml iodoacetamide treated SP-D.

In the case of “Clq: human complement C1q, the first component of complement [reference compound]”, the “Effect on LDL lipid oxidation” value ([1]; 50 μg/ml) is reported as “no effect on LDL lipid oxidation”, the “TBARS LDL Malondialdehyde” value ([1]; LDL + Cu2+ + 50 μg/ml protein) is reported as 4.16 ± 0.05 µM and the “Protection from oxidation of surfactant lipids” value ([2]; 50 μg/ml control protein) is reported as “no protection from oxidation”. The “TBARS Surfactant lipids Malondialdehyde” value ([2]; Lipid + Cu2+ + 50 μg/ml protein, mean ± S.E.M., n=3) was 1.15 ± 0.07 µM.

For “lysozyme: positive control protein lysozyme [reference compound]”, the “Clearing in E. coli plates” value ([3]; 0.5 and 5.0 μg added) was “dose-dependent clearing” and the “Clearing in GBS plates” value [4] was “dose-dependent clearing”.

For “recombinant mouse SP-A: recombinant mouse SP-A”, the “Inhibition of E. coli growth in presence of anti-mouse SP-A / anti-mouse SP-D antibodies” value [3] was “blocked” and the “Inhibition of E. coli growth in presence of excess LPS vesicles” value [3] was “blocked”.

B1: ApoAIV: antioxidant serum lipoprotein ApoAIV (protein, UniProt P06727 21-396, looked up)
Apolipoprotein A-IV: EVSADQVATVMWDYFSQLSNNAKEAVEHLQKSELTQQLNALFQDKLGEVNTYAGDLQKKLVPFATELHERLAKDSEKLKEEIGKELEELRARLLPHANEVSQKIGDNLRELQQRLEPYADQLRTQVSTQAEQLRRQLTPYAQRMERVLRENADSLQASLRPHADELKAKIDQNVEELKGRLTPYADEFKVKIDQTVEELRRSLAPYAQDTQEKLNHQLEGLTFQMKKNAEELKARISASAEELRQRLAPLAEDVRGNLRGNTEGLQKSLAELGGHLDQQVEEFRRRVEPYGENFNKALVQQMEQLRQKLGPHAGDVEGHLSFLEKDLRDKVNSFFSTFKEKESQDKTLSLPELEQQQEQQQEQQQEQVQMLAPLES
For B1, the IC50 [5] is listed as 50 nM.

B2: alkylated SP-D: rat SP-D alkylated by incubation with 0.5 M iodoacetamide (protein, UniProt P35248 20-374, looked up)
Pulmonary …: AEMKTLSQRSITNTCTLVLCSPTENGLPGRDGRDGREGPRGEKGDPGLPGPMGLSGLPGPRGPVGPKGENGSAGEPGPKGERGLVGPPGSPGISGPAGKEGPSGKQGNIGPQGKPGPKGEAGPKGEVGAPGMQGSAGAKGPAGPKGERGAPGEQGAPGNAGAAGPAGPAGPQGAPGSRGPPGLKGDRGAPGDRGIKGESGLPDSAALRQQMEALNGKLQRLEAAFSRYKKAALFPDGQSVGDKIFRAANSEEPFEDAKEMCRQAGGQLASPRSATENAAVQQLVTAHSKAAFLSMTDVGTEGKFTYPTGEALVYSNWAPGEPNNNGGAENCVEIFTNGQWNDKACGEQRLVICEF
modifications: alkylated with iodoacetamide
notes: rat SP-D alkylated by incubation with 0.5 M iodoacetamide
With B2 the “LDL oxidation in carbonyl Western analysis” value [6] was “neither alkylated SP-A at 50 μg/ml or alkylated SP-D at 10 μg/ml inhibited lipid oxidation” and the “TBARS LDL Malondialdehyde” value ([1]; LDL + Cu2+ + 10 μg/ml protein) was 3.92 ± 0.14 µM.

B3: recombinant mouse SP-D: recombinant mouse SP-D (protein)
chain: AEMKSLSQRSVPNTCTLVMCSPTENGLPGRDGRDGREGPRGEKGDPGLPGPMGLSGLQGPTGPVGPKGENGSAGEPGPKGERGLSGPPGLPGIPGPAGKEGPSGKQGNIGPQGKPGPKGEAGPKGEVGAPGMQGSTGAKGSTGPKGERGAPGVQGAPGNAGAAGPAGPAGPQGAPGSRGPPGLKGDRGVPGDRGIKGESGLPDSAALRQQMEALKGKLQRLEVAFSHYQKAALFPDGRSVGDKIFRTADSEKPFEDAQEMCKQAGGQLASPRSATENAAIQQLITAHNKAAFLSMTDVGTEGKFTYPTGEPLVYSNWAPGEPNNNGGAENCVEIFTNGQWNDKACGEQRLVICEF
In the case of B3, the “Inhibition of E. coli growth in presence of anti-mouse SP-A / anti-mouse SP-D antibodies” value [3] is reported as “blocked” and the “Inhibition of E. coli growth in presence of excess LPS vesicles” value [3] is reported as “blocked”.
